Data published in US20090082322A1, “Gender Differences in Experimental Aortic Aneurysm Formation” (THE REGENTS OF THE UNIVERSITY OF MICHIGAN, priority 2004, published 2009).

What was measured:
[1] = test system: MMP-9; assay: MMP-9 activity (zymography) in media of IL-1β stimulated aortic explants from pretreated male rats; assay type: in vivo, Sprague-Dawley rats; details: male rats treated 3 weeks with 0.1 mg 21-day extended release pellet, IL-1β stimulation; control 75.3, p<0.03
Protocol: Zymography supplies were purchased from Novex. MMP distribution after treatment of RASMC with IL-1β and increasing concentrations of 17-β-estradiol was determined. Gelatin substrate zymograms were prepared using precast 10% SDS-polyacrylamide gels containing 1 mg/mL of gelatin. Equal volumes of experimental media samples were diluted into 2× tris-glycine SDS sample buffer and electrophoretically separated under nonreducing conditions. Proteins were renatured in 2.7% Triton X-100, and the gels were incubated overnight at 37° C. in 50 mmol/L tris-HCl containing 5 mmol/L CaCl2 and 2% Brij 35. After overnight staining with Coomassie blue R-250 and de-staining for 4 hours with 10% acetic acid and 40% methanol in water, gelatinase activity was evident by clear bands against a dark blue background. Male Sprague-Dawley rats (190 g to 210 g) were obtained from Charles River Laboratories. Subcutaneous neck implantation of a 21-day slow release 0.1 mg 17-β-estradiol pellet (Innovative Research of America) was performed under general inhalational anesthesia. This particular estradiol dose results in serum estradiol levels at 2 to 3 weeks of 44.7±6.1 pg/mL compared with 15.0±2.2 pg/mL in control rats (p<0.05). Three weeks after pellet implantation, the infrarenal aorta was explanted under general anesthesia. […]

[2] = test system: elastase-perfused infrarenal abdominal aorta of male rats; assay: Elastase perfusion aneurysm model after estrogen pellet implantation, aortic diameter; assay type: in vivo, Sprague-Dawley rats; details: 0.1-mg 21-day slow-release pellet s.c.
Protocol: Pancreatic porcine elastase perfusion of the rat aortas was performed as described previously. (Anidjar S, et al., Circulation, 82:973-981 (1990)). Male and female rats (n=15, each) were anesthetized with 2-2.5% isoflurane inhalation, and the infrarenal abdominal aorta was isolated under sterile conditions. Digital video micrometry was performed to directly measure outer aortic diameter. Specifically, images of the aorta were obtained using a Spot Insight Color Optical Camera (Diagnostic Instruments, Sterling Heights, Mich.) attached to an operating microscope (Nikon, Melville, N.Y.). Aortic diameters were then measured at the level of the left renal vein, the mid-infrarenal aorta, and the aortic bifurcation in triplicate using Image Pro Express software (Media Cybernetics, Inc, Silver Spring, Md.). Temporary proximal and distal aortic control was obtained using temporary 4-0 cotton suture loops, following which an aortotomy was made near the aortic bifurcation with a 30-gauge needle. […] At 7 or 14 days, aortas were re-exposed and aortic diameters were re-measured in vivo. […] The infrarenal aorta was then removed and subjected to histological study, immunohistochemistry, and quantitative polymerase chain reaction (PCR). […]

SMILES: C[C@]12CC[C@@H]3c4ccc(O)cc4CC[C@H]3[C@@H]1CC[C@@H]2O [17-β-estradiol]
- MMP-9 activity in conditioned media of aortic explants [1]: 29.9 OD×10^3/mg protein
- aortic expansion (increase in aortic diameter) ([2]; 7 days after elastase perfusion, sham 197%±39%, P=0.010): 124%±19
- aneurysm size (increase in aortic diameter) ([2]; 14 days after elastase perfusion, sham 538%±105, P=0.0226): 241%±57
